Test results taken from PubChem BioAssay AID1963827 (Molecular Pharmacology Branch, DTP, NCI, 2024).

Tested on: 994946-033-R-J1-PDC complex spheroid viability
Assay: Anticancer human tumor 994946-033-R-J1-PDC patient-derived melanoma cell line growth inhibition [POLQ]
Conditions: for IC50: curve of first compound; for viability, T/C: stronger effect = lower value
Protocol: Multicellular complex tumor spheroid response to Polymerase (POL) inhibitors (novobiocin, ART-558, RP6685) in combination with a variety of drugs and investigational agents in selected tumor cell lines
The POL inhibitors (novobiocin, ART-558, and RP6685) were evaluated both individually and in combination with standard of care and investigational anticancer small molecules within a complex spheroid model of solid tumors. . Complex spheroids include a stromal component modeled by human endothelial cells (HUVEC) and fibroblasts modeled by human mesenchymal stem cells (MSCs). The concentration ranges selected for each drug and investigational agent were based upon clinically achievable concentrations if the clinical Cmax of the agent was known.
Compounds. The drugs and investigational agents: novobiocin (NSC847541), ART-558 (NSC835418), RP-6685 (NSC848927), peposertib (NSC802822), ceralasertib (NSC780249), elimusertib (NSC800525), camonsertib (NSC841442), AZD-1390 (NSC803789), olaparib (NSC753686), talazoparib (NSC767125), rucaparib (NSC756644), sotorasib (NSC818433), MRTX-1133 (NSC836407), SN-38 (NSC673596), topotecan (NSC609699), epotoside (NSC141540), doxorubicin (NSC123127), gemcitabine (NSC613327), 5-fluorouracil (NSC19893), paclitaxel (NSC125973), vemurafenib (NSC761431), MSA-2 (NSC828583), SN-011 (NSC837082), adavosertib (NSC754352), prexasertib (NSC758257), carboplatin (NSC241240) and oxaliplatin (NSC266046), were obtained from the National Cancer Institute (NCI) Developmental Therapeutics Program Chemical Repository (21). The FDA-approved anticancer drug set is available from the Developmental Therapeutics Program at https://dtp.cancer.gov/organization/dscb/obtaining/. […] The stock solutions were prepared in dimethyl sulfoxide (DMSO, Sigma-Aldrich, St. Louis, MO, cat. D2650), except for the platinum compounds which were prepared in saline (Quality Biological, Gaithersburg, MD, cat. 114-055-101), at 800-fold the tested concentration and stored at -70 degrees C prior to their use. All drugs and investigational agents were tested over a range starting from a high concentration at or near the clinical Cmax and decreasing in half-log increments. If the clinical Cmax for an agent had not been determined, the highest concentration tested was 10 microM, except for SN-38, which was tested at a high concentration of 1 microM.
Cell Culture. All cells were maintained in an incubator at 37 degrees C and 5% CO2 with 95% humidity. The PDC lines were cultured according to standard operating procedures established by the NCI PDMR (https://pdmr.cancer.gov). Table 3 of the manuscript, lists the cell lines along with the number of the three cell types plated to form the mct-spheroids and media for tumor cell growth. After thawing, all PDC lines, except 997537-175-T-J1-PDC and 415267-285-R-J2-PDC, were cultured in Matrigel-coated flasks prepared with a working solution of 1X Ham's F-12 nutrient mix, without supplementation (Thermo Fisher Scientific, cat. 11765054), 100 U/mL penicillin-streptomycin (Thermo Fisher Scientific, cat. 15140122), and 2.5% Matrigel (Corning Inc., Corning, NY, cat. 354248) for the first three passages. The two PDC lines 997537-175-T-J1-PDC and 415267-285-R-J2-PDC were cultured on uncoated flasks. The 857933-349-R-J2-PDC line was cultured in 6C/Colon 1B media containing advanced DMEM/F-12 (Thermo Fisher Scientific, cat. 12634028), 10 mM HEPES (Thermo Fisher Scientific, cat. 15630080), 1X GlutaMAX supplement (Thermo Fisher Scientific, cat. 35050061), 0.1 mg/mL primocin (InvivoGen, San Diego, CA, cat. ant-pm-2), 10% defined fetal bovine serum, heat inactivated (HyClone Laboratories Inc., Logan, UT, cat. SH30070.03HI), 50% L-WRN conditioned media (ATCC, cat. CRL-3276), 1.25 mM N-Acetyl-L-cysteine (Sigma-Aldrich, cat. A9165), 10 mM nicotinamide (Sigma-Aldrich, cat. N0636), 1X B-27 supplement (Thermo Fisher Scientific, cat. 17504044), 1X N-2 supplement (Thermo Fisher Scientific, cat. […]

[1] = second compound 0.0316 µM, first compound 0.0316 µM
[2] = second compound 0.0316 µM, first compound 0.1 µM
[3] = second compound 0.0316 µM, first compound 0.316 µM
[4] = second compound 0.0316 µM, first compound 1 µM
[5] = second compound 0.1 µM, first compound 0.0316 µM
[6] = second compound 0.1 µM, first compound 0.1 µM
[7] = second compound 0.1 µM, first compound 0.316 µM
[8] = second compound 0.1 µM, first compound 1 µM
[9] = second compound 0.316 µM, first compound 0.0316 µM
[10] = second compound 0.316 µM, first compound 0.1 µM
[11] = second compound 0.316 µM, first compound 0.316 µM
[12] = second compound 0.316 µM, first compound 1 µM
[13] = second compound 1 µM, first compound 0.0316 µM
[14] = second compound 1 µM, first compound 0.1 µM
[15] = second compound 1 µM, first compound 0.316 µM
[16] = second compound 1 µM, first compound 1 µM
[17] = second compound 3.16 µM, first compound 0.0316 µM
[18] = second compound 3.16 µM, first compound 0.1 µM
[19] = second compound 3.16 µM, first compound 0.316 µM
[20] = second compound 3.16 µM, first compound 1 µM
[21] = second compound 10 µM, first compound 0.0316 µM
[22] = second compound 10 µM, first compound 0.1 µM
[23] = second compound 10 µM, first compound 0.316 µM
[24] = second compound 10 µM, first compound 1 µM
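Also: spheroids exposed to drugs for 7 days.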
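For viability, T/C in this document: 100% = DMSO vehicle treated spheroids.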

C=CCn1c(=O)c2cnc(Nc3ccc(N4CCN(C)CC4)cc3)nc2n1-c1cccc(C(C)(C)O)n1 + COC1C(OC(N)=O)C(O)C(Oc2ccc3c(O)c(NC(=O)c4ccc(O)c(CC=C(C)C)c4)c(=O)oc3c2C)OC1(C)C
IC50 (second compound 0.0316 µM): 855 nM | IC50 (second compound 0.1 µM): 863 nM | IC50 (second compound 0.316 µM): 675 nM | IC50 (second compound 1 µM): > 1000 nM | IC50 (second compound 3.16 µM): > 1000 nM | IC50 (second compound 10 µM): 966 nM | viability, T/C (second compound 0.0316 µM, first compound 0.00316 µM): 89.1% | viability, T/C (second compound 0.0316 µM, first compound 0.01 µM): 115% | viability, T/C [1]: 126% | viability, T/C [2]: 117% | viability, T/C [3]: 92.8% | viability, T/C [4]: 43.2% | viability, T/C (second compound 0.1 µM, first compound 0.00316 µM): 93.1% | viability, T/C (second compound 0.1 µM, first compound 0.01 µM): 101% | viability, T/C [5]: 117% | viability, T/C [6]: 96% | viability, T/C [7]: 89.2% | viability, T/C [8]: 44.3% | viability, T/C (second compound 0.316 µM, first compound 0.00316 µM): 98.5% | viability, T/C (second compound 0.316 µM, first compound 0.01 µM): 109% | viability, T/C [9]: 134% | viability, T/C [10]: 102% | viability, T/C [11]: 83.9% | viability, T/C [12]: 32.8% | viability, T/C (second compound 1 µM, first compound 0.00316 µM): 110% | viability, T/C (second compound 1 µM, first compound 0.01 µM): 118% | viability, T/C [13]: 94.9% | viability, T/C [14]: 102% | viability, T/C [15]: 104% | viability, T/C [16]: 60.8% | viability, T/C (second compound 3.16 µM, first compound 0.00316 µM): 91.9% | viability, T/C (second compound 3.16 µM, first compound 0.01 µM): 127% | viability, T/C [17]: 106% | viability, T/C [18]: 83.2% | viability, T/C [19]: 56.5% | viability, T/C [20]: 53.9% | viability, T/C (second compound 10 µM, first compound 0.00316 µM): 101% | viability, T/C (second compound 10 µM, first compound 0.01 µM): 104% | viability, T/C [21]: 120% | viability, T/C [22]: 114% | viability, T/C [23]: 93.8% | viability, T/C [24]: 48.6%

CC1COCCN1c1cc(C2(O)CC3CCC(C2)O3)c2cnn(-c3ccn[nH]3)c2n1 (centres undefined) + Nc1ccc(C#CCN(C(=O)Cc2ncc(C(F)(F)F)cc2C(F)(F)F)c2ccc(F)cc2)nn1
IC50 (second compound 0.0316 µM): 51.3 nM | IC50 (second compound 0.1 µM): < 31.6 nM | IC50 (second compound 0.316 µM): < 31.6 nM | IC50 (second compound 1 µM): 68.7 nM | IC50 (second compound 3.16 µM): 38.6 nM | IC50 (second compound 10 µM): < 31.6 nM | viability, T/C [1]: 59.9% | viability, T/C [2]: 36.3% | viability, T/C [3]: 23.4% | viability, T/C [4]: 18.8% | viability, T/C (second compound 0.0316 µM, first compound 3.16 µM): 13.9% | viability, T/C (second compound 0.0316 µM, first compound 10 µM): 6.85% | viability, T/C [5]: 43.3% | viability, T/C [6]: 27.6% | viability, T/C [7]: 24.2% | viability, T/C [8]: 19.9% | viability, T/C (second compound 0.1 µM, first compound 3.16 µM): 10.6% | viability, T/C (second compound 0.1 µM, first compound 10 µM): 9.96% | viability, T/C [9]: 48.5% | viability, T/C [10]: 24.9% | viability, T/C [11]: 26.3% | viability, T/C [12]: 19.6% | viability, T/C (second compound 0.316 µM, first compound 3.16 µM): 17.6% | viability, T/C (second compound 0.316 µM, first compound 10 µM): 9.49% | viability, T/C [13]: 74.5% | viability, T/C [14]: 31.9% | viability, T/C [15]: 33.7% | viability, T/C [16]: 10.7% | viability, T/C (second compound 1 µM, first compound 3.16 µM): 13% | viability, T/C (second compound 1 µM, first compound 10 µM): 9.29% | viability, T/C [17]: 55.6% | viability, T/C [18]: 22.8% | viability, T/C [19]: 19.8% | viability, T/C [20]: 21.4% | viability, T/C (second compound 3.16 µM, first compound 3.16 µM): 17.8% | viability, T/C (second compound 3.16 µM, first compound 10 µM): 8.76% | viability, T/C [21]: 38.3% | viability, T/C [22]: 54.1% | viability, T/C [23]: 24.6% | viability, T/C [24]: 23.6% | viability, T/C (second compound 10 µM, first compound 3.16 µM): 14.6% | viability, T/C (second compound 10 µM, first compound 10 µM): 5.15%
